Read-outs that look alike come from different tables or passages of the source. One block for each compound: values may come before it.
Legend:
Vanin-1 = settings: cited from earlier work
γ-GCS [1] = target: T1, γ-GCS (Mus musculus, UniProt P97494); assay: γ-GCS activity in liver of treated mice; type: in vivo
T1 construct: Determination of γ-GCS Activity and GSH Levels in Liver and Intestine; from tissue; host or cells: liver and intestine of WT and Vanin-1-/- BALB/c mice
T1 sequence (P97494 1-637): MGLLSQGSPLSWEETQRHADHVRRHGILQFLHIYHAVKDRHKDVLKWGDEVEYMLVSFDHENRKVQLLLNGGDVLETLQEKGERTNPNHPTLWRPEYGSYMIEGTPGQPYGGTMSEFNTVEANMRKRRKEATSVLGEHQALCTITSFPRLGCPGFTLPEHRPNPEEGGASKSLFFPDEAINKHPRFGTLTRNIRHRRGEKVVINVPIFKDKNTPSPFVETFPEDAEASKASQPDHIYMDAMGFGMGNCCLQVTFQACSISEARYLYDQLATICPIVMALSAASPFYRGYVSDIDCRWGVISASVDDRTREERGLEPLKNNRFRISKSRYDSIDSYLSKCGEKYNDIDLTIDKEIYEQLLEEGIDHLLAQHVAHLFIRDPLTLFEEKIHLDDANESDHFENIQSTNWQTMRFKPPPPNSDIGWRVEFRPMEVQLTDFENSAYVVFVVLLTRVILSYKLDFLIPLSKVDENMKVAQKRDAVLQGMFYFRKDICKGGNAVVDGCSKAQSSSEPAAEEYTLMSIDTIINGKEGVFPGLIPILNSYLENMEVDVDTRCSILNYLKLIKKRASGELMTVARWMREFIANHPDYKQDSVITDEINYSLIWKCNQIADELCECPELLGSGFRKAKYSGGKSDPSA
T1 sequence (O09172 1-274 partner): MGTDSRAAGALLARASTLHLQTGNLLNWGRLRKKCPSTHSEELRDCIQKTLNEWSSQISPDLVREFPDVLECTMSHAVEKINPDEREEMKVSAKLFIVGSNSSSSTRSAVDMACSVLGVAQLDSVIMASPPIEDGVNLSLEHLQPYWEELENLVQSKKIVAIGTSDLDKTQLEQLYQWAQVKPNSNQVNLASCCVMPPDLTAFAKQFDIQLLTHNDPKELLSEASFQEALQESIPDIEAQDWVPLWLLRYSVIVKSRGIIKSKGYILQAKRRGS
Experimental: (§1) Indomethacin (Sigma) was administered at a dose of 25 mg/kg in 5% sodium carbonate to Vanin-1^−/− (n=5) and WT (n=5) mice in 2 SC injections at 12 h-interval. Mice were sacrificed 20 hrs after the first injection. […] Cystamine was given by gavage 3 times on day 1 and once on day 2 at the dose of 120 mg/kg. The dose was adjusted so as to not induce intestinal inflammation. Mice were sacrificed 5 hours after the last gavage. To evaluate the impact of cystamine on indomethacin treatment, Vanin-1^−/− (n=5) and WT (n=5) mice received cystamine preceding indomethacin injection. In a complement study, indomethacin-treated WT mice (n=5) were supplemented with N-acetylcysteine (NAC) to determine the relationship between GSH depletion and injury. The antioxidant was given by gavage (200 μl of a 150 mg/ml, pH 7 solution) three times a day, starting 12 hrs prior indomethacin treatment.
(§2) γ-GCS activity was determined by the method described by (Seelig, 1984). GSH levels were determined according to Tietze et al., (1969).

GSH [2] = assay: GSH levels in intestine of treated mice; type: in vivo, mouse
Experimental: as §1, §2

GSH [3] = assay: GSH levels in liver of treated mice; type: in vivo, mouse
Experimental: as §1, §2

[4] = tested on: MIP-2, iNOS, COX-2, and COX-1 mRNAs; assay: Semi-quantitative RT-PCR of inflammatory factors in jejunum; type: in vivo, mouse
Experimental: as §1
Total cellular RNA was isolated from jejunum samples of indomethacin-treated mice, by guanidinium thiocyanate phenol-chloroform extraction.

γ-GCS [5] = target: T1, γ-GCS; assay: γ-GCS activity in intestine of treated mice; type: in vivo
Experimental: as §1, §2

jejunum = assay: Histological examination of intestinal injury; type: in vivo, mouse; settings: following indomethacin treatment
Experimental: as §1
After sacrifice, jejunum of the indomethacin-treated mice were removed, formalin-fixed and paraffin-embedded. They were cut to 4-μm thickness and stained with hematoxylin-phloxine-saffron. Immunohistochemistry was performed on jejunum cryosections using the anti-Vanin-1 mAb H202-407 modified from Aurrand-Lions et al. (Aurrand-Lions, 1996).

MPO = assay: Intestinal myeloperoxidase (MPO) activity; type: in vivo, mouse; settings: jejunum, after indomethacin treatment
Experimental: as §1, with “treatment. 3-cm intestinal samples taken in the most injured part, i.e. the colon of S. mansoni-infected mice and the jejunum of indomethacin-treated mice. Samples were homogenized in 0.5% hexadecyltrimethyl-ammonium bromide. MPO activity was determined as described previously (Liaudet, 2000).” for “treatment.”

[6] = as described by Pitari et al. (1994)
[7] = control as in indomethacin-treated animals
[8] = cystamine administered without indomethacin
[9] = jejunum, Vanin-1−/− mice, indomethacin 2 x 25 mg/kg SC
[10] = NAC given to indomethacin-treated mice

Compound: c1cc(SSc2ccncc2)ccn1 [4,4′-dithiodipyridine]
type of Vanin-1 (pantetheinase) inhibition (Vanin-1; [6]): reversible inhibition

Compound: O=C(O)c1cc(SSc2ccc([N+](=O)[O-])c(C(=O)O)c2)ccc1[N+](=O)[O-] [5,5′-dithiobis(2-nitrobenzoic acid)]
type of Vanin-1 (pantetheinase) inhibition (Vanin-1; [6]): reversible inhibition

γ-GCS (γ-GCS [1]; KO (Vanin-1−/−) mice): 11.2 ± 0.58
γ-GCS (γ-GCS [1]; WT mice): 10.8 ± 0.63
γ-GCS activity, change (γ-GCS [1]; [7]): dramatically reduced
γ-GCS (γ-GCS [5]; KO (Vanin-1−/−) mice): 21.5 ± 2.4
γ-GCS (γ-GCS [5]; WT mice): 20.2 ± 1.2
Compound: NCCSSCCN [Cystamine, cystamine]
type of Vanin-1 (pantetheinase) inhibition (Vanin-1; [6]): reversible inhibition
GSH (GSH [2]; KO (Vanin-1−/−) mice): 1.0 ± 0.05
GSH (GSH [2]; WT mice): 0.90 ± 0.12
intestinal GSH levels, change (GSH [2]; cystamine administration): reduced
GSH (GSH [3]; KO (Vanin-1−/−) mice): 5.55 ± 1.20
GSH (GSH [3]; WT mice): 5.36 ± 1.15
GSH levels, change (GSH [3]; [7]): dramatically reduced
COX-2 mRNA [4, 8]: moderate upregulation
iNOS and MIP-2 mRNAs [4, 8]: did not change
mRNA expression of inflammatory factors ([4]; cystamine given to indomethacin-treated Vanin-1−/− mice): restored mRNA expression to WT levels

Compound: COc1ccc2c(c1)c(CC(=O)O)c(C)n2C(=O)c1ccc(Cl)cc1 [Indomethacin, indomethacin]
γ-GCS (γ-GCS [1]; KO (Vanin-1−/−) mice): 37.9 ± 3.33
γ-GCS (γ-GCS [1]; WT mice): 23.4 ± 0.72
γ-GCS activity, change (γ-GCS [1]; following indomethacin treatment): increased
GSH (GSH [2]; KO (Vanin-1−/−) mice): 1.37 ± 0.24
GSH (GSH [2]; WT mice): 0.56 ± 0.08
GSH (GSH [3]; KO (Vanin-1−/−) mice): 16.6 ± 1.26
GSH (GSH [3]; WT mice): 9.50 ± 1.44
COX-2 and iNOS mRNAs [4, 9]: barely amplified
MIP-2 mRNA [4, 9]: undetectable
COX-2, iNOS and MIP-2 mRNAs ([4]; jejunum, WT mice, indomethacin 2 x 25 mg/kg SC): sharp augmentation
Histology of intestinal injury (jejunum; Vanin-1−/− mice): appeared normal
Histology of intestinal injury (jejunum; WT mice): flattened mucosal villi
Intestinal MPO activity (MPO): dramatically enhanced
γ-GCS (γ-GCS [5]; KO (Vanin-1−/−) mice): 23.7 ± 2.63
γ-GCS (γ-GCS [5]; WT mice): 18.4 ± 2.18

Compound: CCN1C(=O)C=CC1=O [N-ethyl maleimide]
type of Vanin-1 (pantetheinase) inhibition (Vanin-1; [6]): irreversible inhibition

γ-GCS activity, effect (γ-GCS [5]; [10]): no marked effect
Compound: CC(=O)N[C@@H](CS)C(=O)O [NAC, N-acetylcysteine]
GSH levels, effect (GSH [2]; [10]): no marked effect

Compound: NC(=O)CI [iodoacetamide]
type of Vanin-1 (pantetheinase) inhibition (Vanin-1; [6]): irreversible inhibition

Compound: O=C(O)CI [iodoacetate]
type of Vanin-1 (pantetheinase) inhibition (Vanin-1): irreversible inhibition

Compound: OCCSSCCO [oxidized mercaptoethanol]
type of Vanin-1 (pantetheinase) inhibition (Vanin-1; [6]): reversible inhibition

Reference: US20040247524A1, “Method of treatment of an inflammatory disorder with a Vanin-1 antagonist” (priority 2003, published 2004)
